Article PMC8617681 (Pharmaceuticals, 2021)
Where two headings read alike, the source gives them in different places.

Experiment: 2 h pharmacokinetic study with or without elacridar in wild-type and Abcb1a/1b;Abcg2-/- mice
Format: in vivo
Conditions: for concentration at 2 h / Cmax / Tmax / AUC(0-t): mouse, 10 mg/kg oral, 2 h; for Cmax / Tmax / AUC(0-t): male, plasma, po, 10 mg/kg; for AUC(0-t): read-out: AUC0–2h
Procedure: Mice were housed and handled according to institutional guidelines complying with Dutch and EU legislation. All experimental animal protocols were evaluated and approved by the institutional animal care and use committee. Wild-type, Abcb1a/1b^-/-, Abcg2^-/-, Abcb1a/1b; Abcg2^-/-, Slco1a/1b^-/- male mice, and Cyp3a^-/- and Cyp3aXAV female mice, all of a >99% FVB genetic background, were used between 9 and 16 weeks of age. […] All experimental animal protocols (WP9450, 9669, 9760), including power calculations, designed under the nationally approved DEC/CCD project AVD301002016595, were evaluated and approved by the institutional animal care and use committee of The Netherlands Cancer Institute.
Elacridar hydrochloride was dissolved in DMSO (53 mg/mL) in order to obtain 50 mg elacridar base per mL DMSO. The stock solution was further diluted with a mixture of polysorbate 20, 100% ethanol and 5% glucose water to yield a concentration of 5 mg/mL elacridar [DMSO: polysorbate 20: 100% ethanol: 5% glucose water = 10:15:15:60, (v/v/v/v)]. All dosing solutions were prepared freshly on the day of the experiment.
For the 4 h transporter experiments, tail-vein blood samples were collected at 0.125, 0.25, 0.5, 1, and 2 h time points after oral administration, respectively. For the CYP3A 8 h experiments, tail-vein blood sampling was performed at 0.25, 0.5, 1, 2, and 4 h, respectively. While for elacridar inhibition experiments, tail-vein blood samples were collected at 0.125, 0.25, 0.5, and 1 h time points after oral administration, respectively. Blood sample collection was performed using microvettes containing dipotassium EDTA. At the last time point in each experiment (2, 4 or 8 h), mice were anesthetized with 5% isoflurane and blood was collected by cardiac puncture. Blood samples were collected in Eppendorf tubes containing heparin as an anticoagulant. The mice were then sacrificed by cervical dislocation and brain, liver, kidney, lung, small intestine and testis were rapidly removed. Plasma was isolated from the blood by centrifugation at 9000× g for 6 min at 4 °C, and the plasma fraction was collected and stored at −30 °C until analysis. Organs were homogenized with 4% (w/v) bovine serum albumin and stored at −30 °C until analysis.
Pharmacokinetic parameters were calculated by noncompartmental methods using the PK solver software. The area under the plasma concentration–time curve (AUC) was calculated using the trapezoidal rule, without extrapolating to infinity. The peak plasma concentration (Cmax) and the time of maximum plasma concentration (Tmax) were estimated from the original (individual mouse) data. One-way analysis of variance (ANOVA) was used when multiple groups were compared and the Tukey post hoc correction was used to accommodate multiple testing. The two-sided unpaired Student’s t-test was used when treatments or differences between two specific groups were compared using the software GraphPad Prism 8 (GraphPad Software Inc., La Jolla, CA, USA). All the data were log-transformed before statistical tests were applied. Differences were considered statistically significant when p < 0.05. All data are presented as geometric mean ± SD.

[1] = Abcb1a/1b;Abcg2-/- (>99% FVB genetic background), male Abcb1a/1b;Abcg2-/- mice, elacridar 50 mg/kg oral 2 h prior
[2] = Abcb1a/1b;Abcg2-/- (>99% FVB genetic background), male Abcb1a/1b;Abcg2-/- mice, vehicle
[3] = wild-type (>99% FVB genetic background), male wild-type mice, elacridar 50 mg/kg oral 2 h prior
[4] = wild-type (>99% FVB genetic background), male wild-type mice, vehicle

**Q.** For `COc1ccc(CN2C3CC2CN(c2ccc(-c4cc(OCC(C)(C)O)cn5ncc(C#N)c45)cn2)C3)cn1` [selpercatinib], which concentration at 2 h (Abcb1a/1b;Abcg2-/- (>99% FVB genetic background), brain, male Abcb1a/1b;Abcg2-/- mice, elacridar 50 mg/kg oral 2 h prior, read-out: Cbrain) is on record?
**A.** 4710 ± 484 ng/g

**Q.** And the concentration at 2 h (Abcb1a/1b;Abcg2-/- (>99% FVB genetic background), brain, male Abcb1a/1b;Abcg2-/- mice, vehicle, read-out: Cbrain)?
**A.** 4730 ± 638 ng/g

**Q.** And the concentration at 2 h (FVB (Abcb1a/1b;Abcg2-/-), liver, with elacridar 50 mg/kg oral, 2 h before selpercatinib, male Abcb1a/1b;Abcg2-/- mice, elacridar 50 mg/kg oral 2 h prior, read-out: CLiver)?
**A.** 23600 ng/g

**Q.** And the concentration at 2 h (FVB (Abcb1a/1b;Abcg2-/-), liver, male Abcb1a/1b;Abcg2-/- mice, vehicle, read-out: CLiver)?
**A.** 21400 ng/g

**Q.** And the concentration at 2 h (FVB (wild-type), liver, with elacridar 50 mg/kg oral, 2 h before selpercatinib, male wild-type mice, elacridar 50 mg/kg oral 2 h prior, read-out: CLiver)?
**A.** 20000 ng/g

**Q.** What about the concentration at 2 h (FVB (wild-type), liver, male wild-type mice, vehicle, read-out: CLiver) of the same molecule?
**A.** 18100 ng/g

**Q.** What about the concentration at 2 h (FVB, small intestine tissue together with contents, male Abcb1a/1b;Abcg2-/- mice, elacridar 50 mg/kg oral 2 h prior, read-out: CSI + SIC (small intestine tissue together with contents concentration)) of the same molecule?
**A.** 21200 ng/g

**Q.** What about the concentration at 2 h (FVB, small intestine tissue together with contents, male Abcb1a/1b;Abcg2-/- mice, vehicle, read-out: CSI + SIC (small intestine tissue together with contents concentration)) of the same molecule?
**A.** 18800 ng/g

**Q.** What about the concentration at 2 h (FVB, small intestine tissue together with contents, male wild-type mice, elacridar 50 mg/kg oral 2 h prior, read-out: CSI + SIC (small intestine tissue together with contents concentration)) of the same molecule?
**A.** 26600 ng/g

**Q.** What about the concentration at 2 h (FVB, small intestine tissue together with contents, male wild-type mice, vehicle, read-out: CSI + SIC (small intestine tissue together with contents concentration)) of the same molecule?
**A.** 37600 ng/g

**Q.** And the concentration at 2 h (FVB, testis, male Abcb1a/1b;Abcg2-/- mice, elacridar 50 mg/kg oral 2 h prior, read-out: Ctestis)?
**A.** 9200 ± 856 ng/g

**Q.** What about the concentration at 2 h (FVB, testis, male Abcb1a/1b;Abcg2-/- mice, vehicle, read-out: Ctestis) of the same molecule?
**A.** 7020 ± 664 ng/g

**Q.** What about the concentration at 2 h (FVB, testis, male wild-type mice, elacridar 50 mg/kg oral 2 h prior, read-out: Ctestis) of the same molecule?
**A.** 5710 ± 1740 ng/g

**Q.** And the concentration at 2 h (FVB, testis, male wild-type mice, vehicle, read-out: Ctestis)?
**A.** 788 ± 159 ng/g

**Q.** What about the Cmax [1] of the same molecule?
**A.** 9.62 ± 0.776 µg/mL

**Q.** And the Tmax [1]?
**A.** 47.4 ± 19.8 min

**Q.** And the AUC(0-t) [1]?
**A.** 17.3 µg·h/mL

**Q.** What about the Cmax [2] of the same molecule?
**A.** 8.87 ± 0.792 µg/mL

**Q.** What about the Tmax [2] of the same molecule?
**A.** 60 min

**Q.** What about the AUC(0-t) [2] of the same molecule?
**A.** 15.1 µg·h/mL

**Q.** What about the AUC(0-t) (FVB, wild-type, male wild-type mice, vehicle) of the same molecule?
**A.** 14.1 µg·h/mL

**Q.** What about the Cmax [3] of the same molecule?
**A.** 7.47 ± 1.85 µg/mL

**Q.** What about the Tmax [3] of the same molecule?
**A.** 30 ± 16.2 min

**Q.** And the AUC(0-t) [3]?
**A.** 12.9 µg·h/mL

**Q.** And the Cmax [4]?
**A.** 8.74 ± 1.56 µg/mL

**Q.** What about the Tmax [4] of the same molecule?
**A.** 45 ± 16.2 min

**Q.** And the concentration at 2 h (wild-type (>99% FVB genetic background), brain, male wild-type mice, elacridar 50 mg/kg oral 2 h prior, read-out: Cbrain)?
**A.** 2760 ± 851 ng/g

**Q.** And the concentration at 2 h (wild-type (>99% FVB genetic background), brain, male wild-type mice, vehicle, read-out: Cbrain)?
**A.** 210 ± 40 ng/g

**Q.** What about the abnormal external behavior (wild-type mice, oral co-administration of elacridar) of the same molecule?
**A.** without any abnormal external behavior
